Laboratory results from the kinase profiling compilation of Christmann-Franck et al. (2016).

Columns and labels:
Assay in all cases: KINOMEscan competition binding
Conditions in all cases: compound 10.0 µM
[1] = target: JAK1 JH1 catalytic (human) (UniProt P23458)
[2] = target: PAK7 (human) (UniProt Q9P286)
[3] = target: CDK15 (human) (UniProt Q96Q40)
[4] = target: CAMK4 (human) (UniProt Q16566)
[5] = target: TYK2 JH2 pseudokinase (human) (UniProt P29597)
[6] = target: PHKG2 (human) (UniProt P15735)
[7] = target: PDGFRB (human) (UniProt P09619)
[8] = target: STK17B (human) (UniProt O94768)
[9] = target: CSNK2A1 (human) (UniProt P68400)
[10] = target: HIPK1 (human) (UniProt Q86Z02)
[11] = target: EPHA3 (human) (UniProt P29320)
[12] = target: NEK3 (human) (UniProt P51956)
[13] = target: FGFR2 (human) (UniProt P21802)
[14] = target: RPS6KA6 KD2 (human) (UniProt Q9UK32)
[15] = target: PTK2B (human) (UniProt Q14289)
[16] = target: CDK19 (human) (UniProt Q9BWU1)
[17] = target: LATS2 (human) (UniProt Q9NRM7)
[18] = target: SRPK1 (human) (UniProt Q96SB4)
[19] = target: CDK13 (human) (UniProt Q14004)
[20] = target: PRKD3 (human) (UniProt O94806)
[21] = target: JAK3 JH1 catalytic (human) (UniProt P52333)
[22] = target: IRAK1 (human) (UniProt P51617)
[23] = target: YES1 (human) (UniProt P07947)
[24] = target: PIP5K1C (human) (UniProt O60331)
[25] = target: MAPK8 (human) (UniProt P45983)
[26] = target: NTRK3 (human) (UniProt Q16288)
[27] = target: STK39 (human) (UniProt Q9UEW8)
[28] = target: MARK3 (human) (UniProt P27448)
[29] = target: DAPK1 (human) (UniProt P53355)
[30] = target: MAP3K11 (human) (UniProt Q16584)
[31] = target: STK24 (human) (UniProt Q9Y6E0)
[32] = target: FLT3 (human) (UniProt P36888)
[33] = target: CLK1 (human) (UniProt P49759)
[34] = target: HIPK3 (human) (UniProt Q9H422)
[35] = target: TAOK3 (human) (UniProt Q9H2K8)
[36] = target: STK10 (human) (UniProt O94804)
[37] = target: YSK4 (human) (UniProt Q56UN5)
[38] = target: NEK6 (human) (UniProt Q9HC98)
[39] = target: PHKG1 (human) (UniProt Q16816)
[40] = target: STK36 (human) (UniProt Q9NRP7)
[41] = target: MAPK7 (human) (UniProt Q13164)
Chain of MAPK7 (human) (Q13164 whole entry, looked up): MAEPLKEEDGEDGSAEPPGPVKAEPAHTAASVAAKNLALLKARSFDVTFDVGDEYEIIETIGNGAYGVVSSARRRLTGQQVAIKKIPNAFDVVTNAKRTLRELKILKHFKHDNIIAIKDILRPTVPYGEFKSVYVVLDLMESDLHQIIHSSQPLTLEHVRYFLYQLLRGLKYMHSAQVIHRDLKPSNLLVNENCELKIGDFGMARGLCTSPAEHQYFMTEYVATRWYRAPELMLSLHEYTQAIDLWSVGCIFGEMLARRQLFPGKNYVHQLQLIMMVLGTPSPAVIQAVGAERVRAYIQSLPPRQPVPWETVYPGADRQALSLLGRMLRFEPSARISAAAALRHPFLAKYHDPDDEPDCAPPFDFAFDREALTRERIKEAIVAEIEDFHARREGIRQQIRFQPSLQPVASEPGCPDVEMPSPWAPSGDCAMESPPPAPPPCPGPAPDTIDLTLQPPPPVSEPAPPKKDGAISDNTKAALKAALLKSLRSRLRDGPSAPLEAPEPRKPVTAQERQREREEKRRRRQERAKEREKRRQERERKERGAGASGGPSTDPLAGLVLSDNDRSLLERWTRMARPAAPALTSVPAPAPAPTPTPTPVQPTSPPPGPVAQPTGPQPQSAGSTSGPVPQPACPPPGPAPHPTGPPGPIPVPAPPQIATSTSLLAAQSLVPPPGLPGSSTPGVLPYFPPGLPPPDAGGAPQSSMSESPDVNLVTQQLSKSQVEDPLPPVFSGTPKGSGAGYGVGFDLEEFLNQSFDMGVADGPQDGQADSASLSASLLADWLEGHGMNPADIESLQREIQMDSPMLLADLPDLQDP

Chain of PHKG1 (human) (Q16816 whole entry, looked up): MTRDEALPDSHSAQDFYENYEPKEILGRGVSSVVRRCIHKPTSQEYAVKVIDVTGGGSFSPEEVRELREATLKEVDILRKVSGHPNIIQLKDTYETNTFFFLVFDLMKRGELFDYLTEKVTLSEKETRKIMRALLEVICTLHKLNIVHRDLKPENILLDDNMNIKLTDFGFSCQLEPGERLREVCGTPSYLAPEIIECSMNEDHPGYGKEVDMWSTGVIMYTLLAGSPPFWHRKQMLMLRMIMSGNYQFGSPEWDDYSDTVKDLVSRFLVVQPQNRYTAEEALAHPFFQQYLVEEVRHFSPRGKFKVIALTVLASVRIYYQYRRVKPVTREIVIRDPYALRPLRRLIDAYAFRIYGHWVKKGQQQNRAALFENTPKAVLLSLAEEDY
Chain of JAK1 JH1 catalytic (human) (P23458 whole entry, looked up): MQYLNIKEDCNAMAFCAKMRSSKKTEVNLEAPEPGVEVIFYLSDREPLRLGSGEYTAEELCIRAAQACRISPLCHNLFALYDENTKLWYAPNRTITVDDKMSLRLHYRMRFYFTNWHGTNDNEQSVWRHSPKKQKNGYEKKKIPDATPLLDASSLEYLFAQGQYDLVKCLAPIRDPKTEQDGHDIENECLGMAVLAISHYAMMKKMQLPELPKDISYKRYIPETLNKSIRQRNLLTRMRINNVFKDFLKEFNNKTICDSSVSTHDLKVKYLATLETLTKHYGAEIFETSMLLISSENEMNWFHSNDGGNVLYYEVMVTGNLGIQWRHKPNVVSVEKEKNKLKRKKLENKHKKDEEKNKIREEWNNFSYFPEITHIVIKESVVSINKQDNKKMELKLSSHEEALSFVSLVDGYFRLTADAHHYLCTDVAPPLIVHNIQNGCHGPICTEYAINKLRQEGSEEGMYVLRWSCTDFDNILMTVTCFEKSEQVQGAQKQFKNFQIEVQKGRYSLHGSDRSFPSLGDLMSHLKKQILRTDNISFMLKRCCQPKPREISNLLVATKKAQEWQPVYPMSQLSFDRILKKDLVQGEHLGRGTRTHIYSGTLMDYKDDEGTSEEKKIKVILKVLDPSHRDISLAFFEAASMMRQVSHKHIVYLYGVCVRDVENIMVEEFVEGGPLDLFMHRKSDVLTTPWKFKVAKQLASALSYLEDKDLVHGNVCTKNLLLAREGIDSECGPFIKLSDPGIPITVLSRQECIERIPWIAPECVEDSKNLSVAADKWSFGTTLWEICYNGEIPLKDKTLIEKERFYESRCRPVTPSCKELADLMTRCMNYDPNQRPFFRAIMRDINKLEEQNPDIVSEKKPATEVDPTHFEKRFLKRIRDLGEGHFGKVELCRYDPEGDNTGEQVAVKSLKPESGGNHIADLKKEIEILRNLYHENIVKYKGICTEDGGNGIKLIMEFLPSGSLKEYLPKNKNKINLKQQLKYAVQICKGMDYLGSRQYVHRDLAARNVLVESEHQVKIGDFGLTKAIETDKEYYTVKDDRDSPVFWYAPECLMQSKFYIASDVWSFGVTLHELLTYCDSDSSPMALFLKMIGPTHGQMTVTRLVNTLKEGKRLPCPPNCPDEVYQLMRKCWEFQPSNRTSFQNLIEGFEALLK
Chain of MAPK8 (human) (P45983 whole entry, looked up): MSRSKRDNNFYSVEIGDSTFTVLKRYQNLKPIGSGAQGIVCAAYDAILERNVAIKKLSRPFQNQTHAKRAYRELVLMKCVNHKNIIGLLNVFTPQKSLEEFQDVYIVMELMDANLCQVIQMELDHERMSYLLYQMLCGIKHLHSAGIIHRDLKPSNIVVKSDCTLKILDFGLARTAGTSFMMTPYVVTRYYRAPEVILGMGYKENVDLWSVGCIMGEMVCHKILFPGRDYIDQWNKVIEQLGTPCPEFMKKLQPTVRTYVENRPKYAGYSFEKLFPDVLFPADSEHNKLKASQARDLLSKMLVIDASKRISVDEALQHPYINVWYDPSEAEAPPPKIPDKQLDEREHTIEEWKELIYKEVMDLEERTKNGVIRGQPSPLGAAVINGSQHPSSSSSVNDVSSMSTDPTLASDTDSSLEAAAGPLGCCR
Chain of STK10 (human) (O94804 whole entry, looked up): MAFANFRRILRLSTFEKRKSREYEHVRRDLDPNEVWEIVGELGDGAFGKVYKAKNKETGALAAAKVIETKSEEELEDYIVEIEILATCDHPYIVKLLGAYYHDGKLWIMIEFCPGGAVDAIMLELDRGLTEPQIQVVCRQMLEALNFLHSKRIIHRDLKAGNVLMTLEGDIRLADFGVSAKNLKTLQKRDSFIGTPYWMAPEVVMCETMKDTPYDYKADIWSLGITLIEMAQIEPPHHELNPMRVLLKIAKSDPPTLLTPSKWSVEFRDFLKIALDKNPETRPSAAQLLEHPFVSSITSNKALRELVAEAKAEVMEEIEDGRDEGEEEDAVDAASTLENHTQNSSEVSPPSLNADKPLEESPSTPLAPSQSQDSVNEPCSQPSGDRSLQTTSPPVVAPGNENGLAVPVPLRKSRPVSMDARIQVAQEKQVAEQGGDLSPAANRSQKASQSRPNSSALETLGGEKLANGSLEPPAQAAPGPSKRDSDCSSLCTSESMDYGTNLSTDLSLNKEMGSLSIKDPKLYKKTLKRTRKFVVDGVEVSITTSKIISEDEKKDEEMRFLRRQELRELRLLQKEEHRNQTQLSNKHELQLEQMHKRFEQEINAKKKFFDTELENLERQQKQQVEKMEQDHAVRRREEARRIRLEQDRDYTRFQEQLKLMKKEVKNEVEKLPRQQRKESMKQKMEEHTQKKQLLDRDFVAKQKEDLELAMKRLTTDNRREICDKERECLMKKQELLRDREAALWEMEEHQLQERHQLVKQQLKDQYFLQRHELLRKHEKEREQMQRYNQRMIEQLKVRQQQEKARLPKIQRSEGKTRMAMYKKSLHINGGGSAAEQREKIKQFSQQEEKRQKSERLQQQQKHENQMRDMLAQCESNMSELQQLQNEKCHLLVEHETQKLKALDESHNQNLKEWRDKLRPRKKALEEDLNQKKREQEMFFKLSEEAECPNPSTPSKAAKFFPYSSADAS
Chain of LATS2 (human) (Q9NRM7 whole entry, looked up): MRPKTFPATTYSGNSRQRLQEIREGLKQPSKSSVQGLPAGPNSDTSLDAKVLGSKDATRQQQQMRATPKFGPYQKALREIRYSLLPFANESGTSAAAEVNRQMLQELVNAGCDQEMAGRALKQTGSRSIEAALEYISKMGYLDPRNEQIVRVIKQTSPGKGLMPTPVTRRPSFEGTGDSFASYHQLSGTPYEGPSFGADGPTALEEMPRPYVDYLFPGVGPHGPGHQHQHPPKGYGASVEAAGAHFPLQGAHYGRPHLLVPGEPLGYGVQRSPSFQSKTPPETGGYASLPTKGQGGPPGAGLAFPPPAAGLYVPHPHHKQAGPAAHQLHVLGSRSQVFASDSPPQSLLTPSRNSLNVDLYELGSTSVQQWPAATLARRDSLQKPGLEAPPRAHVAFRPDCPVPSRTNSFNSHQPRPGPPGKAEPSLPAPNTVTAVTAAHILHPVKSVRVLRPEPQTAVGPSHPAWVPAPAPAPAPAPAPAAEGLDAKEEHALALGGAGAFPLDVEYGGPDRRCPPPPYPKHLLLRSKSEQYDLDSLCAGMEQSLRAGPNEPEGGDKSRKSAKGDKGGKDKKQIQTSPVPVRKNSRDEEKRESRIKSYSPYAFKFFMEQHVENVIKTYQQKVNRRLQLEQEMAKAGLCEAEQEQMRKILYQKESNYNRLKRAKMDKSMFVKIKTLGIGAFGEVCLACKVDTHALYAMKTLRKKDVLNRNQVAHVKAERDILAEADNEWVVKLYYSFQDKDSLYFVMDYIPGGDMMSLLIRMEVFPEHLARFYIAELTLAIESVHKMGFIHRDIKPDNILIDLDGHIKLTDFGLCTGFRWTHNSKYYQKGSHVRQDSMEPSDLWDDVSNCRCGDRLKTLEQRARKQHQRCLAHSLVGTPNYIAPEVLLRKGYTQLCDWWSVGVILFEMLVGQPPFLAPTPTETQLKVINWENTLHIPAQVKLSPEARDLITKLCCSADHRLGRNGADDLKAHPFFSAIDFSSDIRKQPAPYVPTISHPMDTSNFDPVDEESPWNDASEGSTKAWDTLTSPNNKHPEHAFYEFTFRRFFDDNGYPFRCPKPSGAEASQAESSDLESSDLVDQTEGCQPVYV

## COc1ccc(-c2ccc3c(N4CCOCC4)nc(N4C[C@@H](C)O[C@@H](C)C4)nc3n2)cc1CO
[1]
  kinase still bound, per cent of control: 84%
[2]
  kinase still bound, per cent of control: 76%
[3]
  per cent of control: 95%
[4]
  kinase still bound, per cent of control: 100%
[5]
  kinase still bound, per cent of control: 86%
[6]
  kinase still bound, per cent of control: 77%
[7]
  kinase still bound, per cent of control: 95%
[8]
  kinase still bound, per cent of control: 100%
[9]
  kinase still bound, per cent of control: 96%
[10]
  kinase still bound, per cent of control: 97%
[11]
  kinase still bound, per cent of control: 90%
[12]
  kinase still bound, per cent of control: 61%
[13]
  kinase still bound, per cent of control: 99%
[14]
  kinase still bound, per cent of control: 93%
[15]
  kinase still bound, per cent of control: 84%
[16]
  per cent of control: 73%
[17]
  kinase still bound, per cent of control: 89%
[18]
  kinase still bound, per cent of control: 100%
[19]
  per cent of control: 100%
[20]
  kinase still bound, per cent of control: 85%
[21]
  kinase still bound, per cent of control: 100%
[22]
  kinase still bound, per cent of control: 100%
[23]
  kinase still bound, per cent of control: 100%
[24]
  kinase still bound, per cent of control: 100%
[25]
  kinase still bound, per cent of control: 87%
[26]
  kinase still bound, per cent of control: 77%
[27]
  per cent of control: 100%
[28]
  kinase still bound, per cent of control: 96%
[29]
  kinase still bound, per cent of control: 95%
[30]
  kinase still bound, per cent of control: 100%
[31]
  kinase still bound, per cent of control: 89%
[32]
  kinase still bound, per cent of control: 71%
[33]
  kinase still bound, per cent of control: 52%
[34]
  kinase still bound, per cent of control: 76%
[35]
  kinase still bound, per cent of control: 90%
[36]
  kinase still bound, per cent of control: 92%
[37]
  kinase still bound, per cent of control: 100%
[38]
  kinase still bound, per cent of control: 96%
[39]
  kinase still bound, per cent of control: 93%
[40]
  kinase still bound, per cent of control: 92%
[41]
  kinase still bound, per cent of control: 100%
